Experimental findings from US5422359A, “α-aminoketone derivatives” (Mitsubishi Kasei Corporation, priority 1992, dated 1995) are described below.

The target in this assay is T1, m-calpain (Rattus norvegicus, UniProt Q07009).
T1 construct: m-calpain was purified from a brain of rat; from tissue; host or cells: rat brain
T1 sequence (Q07009 20-700 limits assumed): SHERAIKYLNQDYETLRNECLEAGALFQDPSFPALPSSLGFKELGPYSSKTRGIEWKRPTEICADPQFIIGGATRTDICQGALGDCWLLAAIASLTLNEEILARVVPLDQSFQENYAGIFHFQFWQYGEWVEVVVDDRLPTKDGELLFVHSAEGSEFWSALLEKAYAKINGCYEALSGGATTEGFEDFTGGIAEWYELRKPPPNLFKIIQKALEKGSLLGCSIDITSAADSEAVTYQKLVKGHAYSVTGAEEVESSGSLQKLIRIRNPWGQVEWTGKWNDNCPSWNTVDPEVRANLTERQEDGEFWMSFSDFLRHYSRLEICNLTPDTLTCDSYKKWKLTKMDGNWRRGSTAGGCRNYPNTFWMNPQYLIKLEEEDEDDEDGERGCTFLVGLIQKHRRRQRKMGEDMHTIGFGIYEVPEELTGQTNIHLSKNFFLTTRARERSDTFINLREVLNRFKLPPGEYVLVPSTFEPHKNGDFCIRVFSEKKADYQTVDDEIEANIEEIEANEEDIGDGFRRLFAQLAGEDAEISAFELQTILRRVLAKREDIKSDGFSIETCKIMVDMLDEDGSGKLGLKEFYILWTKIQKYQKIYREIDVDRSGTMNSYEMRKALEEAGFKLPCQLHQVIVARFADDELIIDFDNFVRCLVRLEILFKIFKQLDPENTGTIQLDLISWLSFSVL
T1 sequence (Q64537 1-270 partner): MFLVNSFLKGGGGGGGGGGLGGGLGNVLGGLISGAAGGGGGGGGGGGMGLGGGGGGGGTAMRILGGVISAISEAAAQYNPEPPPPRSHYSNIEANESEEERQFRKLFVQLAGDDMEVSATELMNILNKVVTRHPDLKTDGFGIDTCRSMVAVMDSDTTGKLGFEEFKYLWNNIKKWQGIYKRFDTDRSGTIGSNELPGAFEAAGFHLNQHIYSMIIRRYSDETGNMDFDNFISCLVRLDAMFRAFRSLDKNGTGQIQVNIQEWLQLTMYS
Kind of assay: Measurement of inhibitory activity against calpain. Type of assay: biochemical. The note with it: m-calpain purified from a brain of rat; read-out: 50% inhibitory concentration (IC50). The procedure:
Measurement of Inhibitory Activity against Calpain
Through the known method disclosed in Journal of Biological Chemistry, vol. 259, p.3210, (1984), m-calpain was purified from a brain of rat. The inhibitory activity against it was measured and determined according to the method disclosed in Journal of Biological Chemistry, vol. 259, p.12489 […].

`CCCC[C@H](NC(=O)[C@H](CC(C)C)NC(=O)OCc1ccccc1)C(=O)CCCc1ccco1` [Example 5]: the IC50 was found to be 10.1 µM.
